In publication PMC5218480 (PLoS ONE, 2017):

Tested on: MV-4-11 cells
Experiment: Gene expression microarray analysis (Affymetrix PrimeView) and GSEA
Type: cell-based, human
Set-up: RFU PODN (11730768_x_at) / Fold change /veh PODN (11730768_x_at) / RFU LINC00158 (11744669_a_at) / Fold change /veh LINC00158 (11744669_a_at) / RFU DUSP10 (11751237_a_at) / Fold change /veh DUSP10 (11751237_a_at) / RFU ID3 (11757404_x_at) / Fold change /veh ID3 (11757404_x_at) / RFU PLEKHG5 (11737974_s_at) / Fold change /veh PLEKHG5 (11737974_s_at) / RFU LRRC4B (11730491_at) / Fold change /veh LRRC4B (11730491_at) / RFU GIMAP4 (11747438_a_at) / Fold change /veh GIMAP4 (11747438_a_at) / RFU KRT8 (11758183_x_at) / Fold change /veh KRT8 (11758183_x_at) / RFU CNN1 (11734310_a_at) / Fold change /veh CNN1 (11734310_a_at) / RFU VPS37D (11726825_at) / Fold change /veh VPS37D (11726825_at) / RFU C10orf10 (11716522_x_at) / Fold change /veh C10orf10 (11716522_x_at) / RFU KIR2DL2 /// KIR2DL4 /// KIR2DL5A /// KIR2DL5B /// KIR2DS1 /// KIR2DS2 /// KIR2DS3 /// KIR2DS4 /// KIR3DL3 /// KIR3DL3 /// KIR3DS1 (11738374_at) / Fold change /veh KIR2DL2 /// KIR2DL4 /// KIR2DL5A /// KIR2DL5B /// KIR2DS1 /// KIR2DS2 /// KIR2DS3 /// KIR2DS4 /// KIR3DL3 /// KIR3DL3 /// KIR3DS1 (11738374_at) / RFU C1QL1 (11718748_at) / Fold change /veh C1QL1 (11718748_at) / RFU TMPRSS4 (11747572_a_at) / Fold change /veh TMPRSS4 (11747572_a_at) / RFU HAMP (11756126_x_at) / Fold change /veh HAMP (11756126_x_at) / RFU RNFT2 (11725882_a_at) / Fold change /veh RNFT2 (11725882_a_at) / RFU NR4A2 (11747474_a_at) / Fold change /veh NR4A2 (11747474_a_at) / RFU ABCC12 (11746883_a_at) / Fold change /veh ABCC12 (11746883_a_at) / RFU TMEM136 (11760407_x_at) / Fold change /veh TMEM136 (11760407_x_at) / RFU CLDN22 /// WWC2 (11732394_at) / Fold change /veh CLDN22 /// WWC2 (11732394_at) / RFU HLA-DPB1 (11760878_x_at) / Fold change /veh HLA-DPB1 (11760878_x_at) / RFU SPINT1 (11716480_a_at) / Fold change /veh SPINT1 (11716480_a_at) / RFU GAP43 (11754022_s_at) / Fold change /veh GAP43 (11754022_s_at) / RFU A4GNT (11735810_at) / Fold change /veh A4GNT (11735810_at) / RFU PRB3 (11715151_x_at) / Fold change /veh PRB3 (11715151_x_at) / RFU TUBB4B (11761932_at) / Fold change /veh TUBB4B (11761932_at) / RFU CAPN14 (11732068_a_at) / Fold change /veh CAPN14 (11732068_a_at) / RFU TMCC2 (11721928_a_at) / Fold change /veh TMCC2 (11721928_a_at) / RFU IRGQ (11745062_a_at) / Fold change /veh IRGQ (11745062_a_at) / RFU FAM174B (11720279_a_at) / Fold change /veh FAM174B (11720279_a_at) / RFU TMPRSS4 (11748680_a_at) / Fold change /veh TMPRSS4 (11748680_a_at) / RFU FAM212B (11763350_a_at) / Fold change /veh FAM212B (11763350_a_at) / RFU PLEKHG5 (11743358_a_at) / Fold change /veh PLEKHG5 (11743358_a_at) / RFU ZSCAN30 (11745921_a_at) / Fold change /veh ZSCAN30 (11745921_a_at) / RFU CMKLR1 (11741424_a_at) / Fold change /veh CMKLR1 (11741424_a_at) / RFU LOC101060620 /// MAPK8IP1 (11723275_at) / Fold change /veh LOC101060620 /// MAPK8IP1 (11723275_at) / RFU SPTSSB (11747773_x_at) / Fold change /veh SPTSSB (11747773_x_at) / RFU PRSS12 (11739890_at) / Fold change /veh PRSS12 (11739890_at) / RFU BIN1 (11741810_x_at) / Fold change /veh BIN1 (11741810_x_at) / RFU WNT11 (11732464_a_at) / Fold change /veh WNT11 (11732464_a_at) / RFU C10orf10 (11716521_a_at) / Fold change /veh C10orf10 (11716521_a_at) / RFU C5orf56 (11738089_at) / Fold change /veh C5orf56 (11738089_at) / RFU CYB561 (11721691_x_at) / Fold change /veh CYB561 (11721691_x_at) / RFU ANKRD19P (11752326_a_at) / Fold change /veh ANKRD19P (11752326_a_at) / RFU OR2T12 /// OR2T33 /// OR2T8 (11738714_s_at) / Fold change /veh OR2T12 /// OR2T33 /// OR2T8 (11738714_s_at) / RFU VCAN (11748164_a_at) / Fold change /veh VCAN (11748164_a_at) / RFU JSRP1 (11732532_at) / Fold change /veh JSRP1 (11732532_at) / RFU KRTAP10-11 (11738290_x_at) / Fold change /veh KRTAP10-11 (11738290_x_at) / RFU MYO3A (11730013_a_at) / Fold change /veh MYO3A (11730013_a_at) / RFU EBF3 (11725865_a_at) / Fold change /veh EBF3 (11725865_a_at) / RFU CAMK2N1 (11719241_x_at) / Fold change /veh CAMK2N1 (11719241_x_at) / RFU C5orf56 (11738088_a_at) / Fold change /veh C5orf56 (11738088_a_at) / RFU OLFML3 (11715873_a_at) / Fold change /veh OLFML3 (11715873_a_at) / RFU LOC100653217 /// NTM (11731650_a_at) / Fold change /veh LOC100653217 /// NTM (11731650_a_at) / RFU MAPK11 (11762145_a_at) / Fold change /veh MAPK11 (11762145_a_at) / RFU FIZ1 (11724087_x_at) / Fold change /veh FIZ1 (11724087_x_at) / RFU OASL (11726364_x_at) / Fold change /veh OASL (11726364_x_at) / RFU SOX15 (11748057_x_at) / Fold change /veh SOX15 (11748057_x_at) / RFU CD79A (11719716_a_at) / Fold change /veh CD79A (11719716_a_at) / RFU HIST1H1D (11736915_at) / Fold change /veh HIST1H1D (11736915_at) / RFU CASKIN2 (11723855_a_at) / Fold change /veh CASKIN2 (11723855_a_at) / RFU LOC730098 (11760151_x_at) / Fold change /veh LOC730098 (11760151_x_at) / RFU OR4N2 (11742367_at) / Fold change /veh OR4N2 (11742367_at) / RFU PRRT2 (11749266_a_at) / Fold change /veh PRRT2 (11749266_a_at) / RFU SNX32 (11753110_a_at) / Fold change /veh SNX32 (11753110_a_at) / RFU CDHR5 (11726645_a_at) / Fold change /veh CDHR5 (11726645_a_at) / RFU RCAN1 (11760418_a_at) / Fold change /veh RCAN1 (11760418_a_at) / RFU FAM167A (11723789_a_at) / Fold change /veh FAM167A (11723789_a_at) / RFU FAM26E (11764081_at) / Fold change /veh FAM26E (11764081_at) / RFU ISYNA1 (11749810_s_at) / Fold change /veh ISYNA1 (11749810_s_at) / RFU ACY1 (11761880_at) / Fold change /veh ACY1 (11761880_at) / RFU 11764098_at / Fold change /veh 11764098_at / RFU SAMD14 (11745864_x_at) / Fold change /veh SAMD14 (11745864_x_at) / RFU NPB (11741838_a_at) / Fold change /veh NPB (11741838_a_at) / RFU TMPRSS6 (11731388_a_at) / Fold change /veh TMPRSS6 (11731388_a_at) / RFU KRTAP10-2 (11738614_at) / Fold change /veh KRTAP10-2 (11738614_at) / RFU ARHGAP8 /// PRR5-ARHGAP8 (11727945_x_at) / Fold change /veh ARHGAP8 /// PRR5-ARHGAP8 (11727945_x_at) / RFU KRTAP5-7 /// NADSYN1 (11734609_at) / Fold change /veh KRTAP5-7 /// NADSYN1 (11734609_at) / RFU RASL12 (11751679_a_at) / Fold change /veh RASL12 (11751679_a_at) / RFU CDKN2B (11736163_a_at) / Fold change /veh CDKN2B (11736163_a_at) / RFU PRF1 (11729649_at) / Fold change /veh PRF1 (11729649_at) / RFU, ZNF638 /// ZNF638-IT1 / Fold change vs veh, ZNF638 /// ZNF638-IT1 / RFU, PANK3 / Fold change vs veh, PANK3 / RFU, SH3YL1 / Fold change vs veh, SH3YL1 / RFU, ZEB2 / Fold change vs veh, ZEB2 / RFU, NRIP1 / Fold change vs veh, NRIP1 / RFU, PTTG1IP / Fold change vs veh, PTTG1IP / RFU, CAPN2 / Fold change vs veh, CAPN2 / RFU, MED14 / Fold change vs veh, MED14 / RFU, SNORA58 / Fold change vs veh, SNORA58 / RFU, C1orf63 / Fold change vs veh, C1orf63 / RFU, LRRFIP1 / Fold change vs veh, LRRFIP1 / RFU, NDUFAF7 / Fold change vs veh, NDUFAF7 / RFU, SLC12A2 / Fold change vs veh, SLC12A2 / RFU, IBTK / Fold change vs veh, IBTK / RFU, ESF1 / Fold change vs veh, ESF1 / Fold change vs veh, TMEM50B / RFU, TAOK1 / Fold change vs veh, TAOK1 / RFU, ACBD3 / Fold change vs veh, ACBD3 / RFU, TMA16 / Fold change vs veh, TMA16 / RFU, RWDD3 / Fold change vs veh, RWDD3 / RFU, BCAT1 / Fold change vs veh, BCAT1 / RFU, EDEM3 / Fold change vs veh, EDEM3 / RFU, TMEM33 / Fold change vs veh, TMEM33 / RFU, WDR75 / Fold change vs veh, WDR75 / RFU, AHCTF1 / Fold change vs veh, AHCTF1 / RFU, TFRC / Fold change vs veh, TFRC / RFU, ZDHHC17 / Fold change vs veh, ZDHHC17 / RFU, NOM1 / Fold change vs veh, NOM1 / RFU, ARL8B / Fold change vs veh, ARL8B / RFU, ZBTB11 / Fold change vs veh, ZBTB11 / RFU, TAMM41 / Fold change vs veh, TAMM41 / RFU, KIAA1704 /// LOC100996395 / Fold change vs veh, KIAA1704 /// LOC100996395 / RFU, ING1 / Fold change vs veh, ING1 / RFU, TRMT61B / Fold change vs veh, TRMT61B / RFU, FUBP3 / Fold change vs veh, FUBP3 / RFU, TP53 / Fold change vs veh, TP53 / RFU, TNKS2 / Fold change vs veh, TNKS2 / RFU, ZFP14 / Fold change vs veh, ZFP14 / RFU, ACTR2 / Fold change vs veh, ACTR2 / RFU, PPP3R1 / Fold change vs veh, PPP3R1 / RFU, PIK3R1 / Fold change vs veh, PIK3R1 / RFU, HNRNPA1 / Fold change vs veh, HNRNPA1 / RFU, RNF170 / Fold change vs veh, RNF170 / RFU, ZNF28 / Fold change vs veh, ZNF28 / RFU, RNGTT / Fold change vs veh, RNGTT / RFU, OGT / Fold change vs veh, OGT / RFU, BRD1 / Fold change vs veh, BRD1 / RFU, MARS / Fold change vs veh, MARS / RFU, ZNF655 / Fold change vs veh, ZNF655 / RFU, FAHD1 / Fold change vs veh, FAHD1 / RFU, BDP1 / Fold change vs veh, BDP1 / RFU, LRRCC1 / Fold change vs veh, LRRCC1 / RFU, ARID1A / Fold change vs veh, ARID1A / RFU, ZNF146 / Fold change vs veh, ZNF146 / RFU, ZNF330 / Fold change vs veh, ZNF330 / RFU, GPN3 / Fold change vs veh, GPN3 / RFU, C9orf123 / Fold change vs veh, C9orf123 / RFU, N4BP2L2 / Fold change vs veh, N4BP2L2 / RFU, ARFIP1 / Fold change vs veh, ARFIP1 / RFU, FAM179B / Fold change vs veh, FAM179B / RFU, BCL10 / Fold change vs veh, BCL10 / RFU, UHRF1BP1L / Fold change vs veh, UHRF1BP1L / RFU, BET1 / Fold change vs veh, BET1 / RFU, CNOT2 / Fold change vs veh, CNOT2 / RFU, ZNF268 / Fold change vs veh, ZNF268 / Fold change vs veh, ZNF507 / RFU, DGCR2 / Fold change vs veh, DGCR2 / RFU, WDSUB1 / Fold change vs veh, WDSUB1 / Fold change vs veh, HSP90B1 /// MIR3652 / RFU, ADSS / Fold change vs veh, ADSS / RFU, GK / Fold change vs veh, GK / RFU, ZNF148 / Fold change vs veh, ZNF148 / RFU, TAF9 / Fold change vs veh, TAF9 / RFU, SLC1A5 / Fold change vs veh, SLC1A5 / RFU, SLMO2 / Fold change vs veh, SLMO2 / RFU, ABCC4 / Fold change vs veh, ABCC4 / RFU, LOC101060439 /// RAP1B / Fold change vs veh, LOC101060439 /// RAP1B / RFU, RFX7 / Fold change vs veh, RFX7 / RFU, GTPBP10 / Fold change vs veh, GTPBP10 / RFU, CNEP1R1 / Fold change vs veh, CNEP1R1 / RFU, BIVM-ERCC5 /// ERCC5 / Fold change vs veh, BIVM-ERCC5 /// ERCC5 / RFU, ILF3 / Fold change vs veh, ILF3 / RFU 11762660_at / Fold change /veh 11762660_at / RFU VCAN (11757783_s_at) / Fold change /veh VCAN (11757783_s_at) / RFU DDX43 (11728927_at) / Fold change /veh DDX43 (11728927_at) / RFU KRT8 (11758188_x_at) / Fold change /veh KRT8 (11758188_x_at) / RFU NKD1 (11759106_at) / Fold change /veh NKD1 (11759106_at) / RFU SRD5A1 (11742802_a_at) / Fold change /veh SRD5A1 (11742802_a_at) / RFU TPSAB1 /// TPSB2 (11721975_s_at) / Fold change /veh TPSAB1 /// TPSB2 (11721975_s_at) / RFU GSTM3 (11746129_a_at) / Fold change /veh GSTM3 (11746129_a_at) / RFU IL23R (11737362_x_at) / Fold change /veh IL23R (11737362_x_at) / RFU TMEM51 (11727254_a_at) / Fold change /veh TMEM51 (11727254_a_at) / RFU PIWIL2 (11732686_x_at) / Fold change /veh PIWIL2 (11732686_x_at) / RFU ORM1 (11744905_x_at) / Fold change /veh ORM1 (11744905_x_at) / RFU CCDC152 (11743942_at) / Fold change /veh CCDC152 (11743942_at) / RFU ECM1 (11717891_a_at) / Fold change /veh ECM1 (11717891_a_at) / RFU IL23R (11748794_a_at) / Fold change /veh IL23R (11748794_a_at) / RFU TNFAIP8L3 (11732012_x_at) / Fold change /veh TNFAIP8L3 (11732012_x_at) / RFU MBOAT4 (11741988_at) / Fold change /veh MBOAT4 (11741988_at) / RFU 11764193_at / Fold change /veh 11764193_at / RFU TMEM53 (11763286_at) / Fold change /veh TMEM53 (11763286_at) / RFU MAGEB2 (11727129_at) / Fold change /veh MAGEB2 (11727129_at) / RFU TMEM200A (11744735_a_at) / Fold change /veh TMEM200A (11744735_a_at) / RFU CCDC152 (11751479_a_at) / Fold change /veh CCDC152 (11751479_a_at) / RFU FAM211A (11726209_a_at) / Fold change /veh FAM211A (11726209_a_at) / RFU RGS16 (11746705_a_at) / Fold change /veh RGS16 (11746705_a_at) / RFU VCAN (11755009_s_at) / Fold change /veh VCAN (11755009_s_at) / RFU RHOB (11743442_s_at) / Fold change /veh RHOB (11743442_s_at) / RFU RGS16 (11720943_a_at) / Fold change /veh RGS16 (11720943_a_at) / RFU RGS16 (11720944_at) / Fold change /veh RGS16 (11720944_at) / RFU, VPS4B / Fold change vs veh, VPS4B / RFU, CREB1 / Fold change vs veh, CREB1 / RFU, DNAJC13 / Fold change vs veh, DNAJC13 / RFU, GNAQ / Fold change vs veh, GNAQ / RFU, CDK5R1 / Fold change vs veh, CDK5R1 / RFU, ZRANB3 / Fold change vs veh, ZRANB3 / RFU, CUL4A / Fold change vs veh, CUL4A / RFU, CCNY / Fold change vs veh, CCNY / RFU, UFL1 / Fold change vs veh, UFL1 / RFU, COG3 / Fold change vs veh, COG3 / RFU, DIAPH2 / Fold change vs veh, DIAPH2 / RFU, SKA2 / Fold change vs veh, SKA2 / RFU, AFF3 / Fold change vs veh, AFF3 / RFU, LMF1 / Fold change vs veh, LMF1 / RFU, IPO11 / Fold change vs veh, IPO11 / RFU, DFFB / Fold change vs veh, DFFB / RFU, FOXP1 / Fold change vs veh, FOXP1 / RFU, CARD8 / Fold change vs veh, CARD8 / RFU, STRN3 / Fold change vs veh, STRN3 / RFU, ADK / Fold change vs veh, ADK / RFU, RASSF2 / Fold change vs veh, RASSF2 / RFU, WIPF1 / Fold change vs veh, WIPF1 / RFU, LARP1B / Fold change vs veh, LARP1B / RFU, RASA1 / Fold change vs veh, RASA1 / RFU, RB1 / Fold change vs veh, RB1 / RFU, PPFIA1 / Fold change vs veh, PPFIA1 / RFU, MAT2A / Fold change vs veh, MAT2A / RFU, CCT5 / Fold change vs veh, CCT5 / RFU, WDR92 / Fold change vs veh, WDR92 / RFU, CUX1 / Fold change vs veh, CUX1 / RFU, TTC7A / Fold change vs veh, TTC7A / RFU, TMEM135 / Fold change vs veh, TMEM135 / RFU, DEPTOR / Fold change vs veh, DEPTOR / RFU, CPM / Fold change vs veh, CPM / RFU, DNAJB6 / Fold change vs veh, DNAJB6 / RFU, CACNA2D3 / Fold change vs veh, CACNA2D3 / RFU, DTX4 / Fold change vs veh, DTX4 / RFU, TFCP2 / Fold change vs veh, TFCP2 / RFU, GMCL1 /// GMCL1P1 / Fold change vs veh, GMCL1 /// GMCL1P1 / RFU, AEBP2 / Fold change vs veh, AEBP2 / RFU, SNHG1 /// SNORD22 /// SNORD25 /// SNORD26 /// SNORD27 /// SNORD28 /// SNORD29 /// SNORD31 / Fold change vs veh, SNHG1 /// SNORD22 /// SNORD25 /// SNORD26 /// SNORD27 /// SNORD28 /// SNORD29 /// SNORD31 / Fold change (Aza/veh), C12orf56 (ProbeSet 11735607_a_at) / Fold change (ACY-1035/veh), C12orf56 (ProbeSet 11735607_a_at) / Fold change (Aza/veh), FGFR1OP (ProbeSet 11751329_s_at) / Fold change (ACY-1035/veh), FGFR1OP (ProbeSet 11751329_s_at) / Fold change (Aza/veh), VPS36 (ProbeSet 11739960_a_at) / Fold change (ACY-1035/veh), VPS36 (ProbeSet 11739960_a_at) / RFU SYPL1 (11715823_x_at) / Fold change /veh SYPL1 (11715823_x_at) / RFU IGFBP7 (11715501_s_at) / Fold change /veh IGFBP7 (11715501_s_at) / RFU REEP3 (11722064_at) / Fold change /veh REEP3 (11722064_at) / RFU IGLL1 (11728026_x_at) / Fold change /veh IGLL1 (11728026_x_at): dose or concentration left out as unconfirmed
Conditions: MV-4-11 cells, 48 hours

**Q.** With Nc1ncn([C@@H]2O[C@H](CO)[C@@H](O)[C@H]2O)c(=O)n1 [azacitidine] as the compound, how does the “Fold change /veh MAGEB2 (11727129_at)” value read?
**A.** Its value is 2.40.
